The structures appear in SMILES notation.

T1 sequence (P47871 26-477): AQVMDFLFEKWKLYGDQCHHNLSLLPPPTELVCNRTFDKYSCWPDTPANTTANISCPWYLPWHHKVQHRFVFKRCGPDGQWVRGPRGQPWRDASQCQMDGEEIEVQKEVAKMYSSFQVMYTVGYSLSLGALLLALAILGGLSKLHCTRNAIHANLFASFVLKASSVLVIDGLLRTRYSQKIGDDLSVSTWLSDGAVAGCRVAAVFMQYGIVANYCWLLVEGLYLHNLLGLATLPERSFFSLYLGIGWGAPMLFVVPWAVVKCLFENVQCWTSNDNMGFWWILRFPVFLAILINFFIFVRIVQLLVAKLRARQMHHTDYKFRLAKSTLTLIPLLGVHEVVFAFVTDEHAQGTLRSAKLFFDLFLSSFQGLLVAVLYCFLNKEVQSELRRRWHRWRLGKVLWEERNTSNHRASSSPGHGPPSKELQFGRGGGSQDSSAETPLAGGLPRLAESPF

One assay has as its target T1, human glucagon receptor (Homo sapiens, UniProt P47871).
T1 construct: made in house; host or cells: FreeStyle CHO cells, transient transfection with pMSRαneo/hGCGR; membrane fraction (35,000 rpm pellet)
Kind of assay: Glucagon binding inhibitory activity ([125I]-glucagon binding to glucagon receptor membrane protein). Particulars: human glucagon receptor membrane protein, [125I]-glucagon, 90 min room temperature. The protocol:
The glucagon binding inhibitory action of the compound of the present invention was evaluated by the following method.
(1) Cloning of Human Glucagon Receptor Gene
Human glucagon receptor gene was cloned by PCR reaction using human pancreas Marathon-ready cDNA (Clontech) as a template and the following primer set.
PCR reaction was performed using Advantage 2 polymerase (Clontech) and according to the attached protocol. The obtained PCR product was electrophoresed on an agarose gel (1%). An about 1.4 kb of DNA fragment containing a glucagon receptor gene was recovered from the gel and digested with restriction enzymes EcoRI and NotI. DNA treated with the restriction enzymes was electrophoresed on an agarose gel (1%). An about 1.4 kb of DNA fragment was recovered and ligated to plasmid pMSRαneo digested with restriction enzymes EcoRI and NotI to construct a human-type glucagon receptor expression plasmid DNA “pMSRαneo/hGCGR”.
(2) Preparation of Glucagon Receptor Membrane Protein
A human-type glucagon receptor was expressed using FreeStyle CHO Expression System (Invitrogen). A transient expression in FreeStyle CHO cell was performed using a human-type glucagon receptor expression plasmid DNA “pMSRαneo/hGCGR” and according to the manual attached to the FreeStyle CHO Expression System. The above-mentioned DNA was transfected and the cultured with shaking for 2 days (37° C., 8% CO2, 125 rpm). 2400 ml of culture medium was centrifuged at 2,000 rpm for 10 min and the cells were collected. The collected cells were washed with PBS, suspended in homogenate buffer [10 mM NaHCO3 (pH 7.4), 1 mM EDTA, Complete EDTA-free (Roche, 1 tablet/50 ml)] and disrupted by polytron cell disrupter (Kinematica AG). Disruption solution was centrifuged at 2,000 rpm for 10 min and the supernatant was collected.
(3) Measurement of Glucagon Binding Inhibitory Activity
The plate was stood for 90 min at room temperature. The reaction solution was transferred from the reaction plate to a 96 well unifilter GF/C plate (Perkin Elmer Inc.) using a cell harvester (Perkin Elmer Inc.) and the membrane fraction was collected on the filter by suction. The filter was presoaked in 2 mg/ml of polyethyleneimine to prevent non-specific adsorption of labeled ligand. The filter was washed 4 times with a reaction buffer and dried for 2 hr at 42° C. To each well was added 25 μl of scintillator (MicroScint0; Perkin Elmer Inc.), and the fluorescence amount was measured using a microplate scintillation counter (TopCount NXT™; Perkin Elmer Inc.).
In addition, the inhibitory rate (%) of the well added with the test compound (10 μM; containing 0.4% DMSO) was calculated, using the reaction rate of the well added only with 0.4% DMSO as 0% inhibitory rate, and the reaction rate of the well added with non-labeled glucagon (final concentration 1 μM) as 100% inhibitory rate.
Molecule `COCc1c(C(Nc2ccc(C(=O)N(C)CCC(=O)O)cc2)C2CCCCC2)oc2ccc(F)cc12` (single isomer, unassigned) [Example A49, 3-[{[4-({cyclohexyl[5-fluoro-3-(methoxymethyl)-1-benzofuran-2-yl]methyl}amino)phenyl]carbonyl}(methyl)amino]propanoic acid] returned a half-inhibitory concentration (IC50) of 640 nM.

Regarding `CC(C)c1nn(-c2ccc(C(F)(F)F)cn2)cc1C(Nc1ccc(C(=O)N(C)CCC(=O)O)cc1)C1CCCCC1` (stereo not drawn) [Example 8, 3-[({4-[(cyclohexyl{3-(1-methylethyl)-1-[5-(trifluoromethyl)pyridin-2-yl]-1H-pyrazol-4-yl}methyl)amino]phenyl}carbonyl)(methyl)amino]propanoic acid], the concentration for half-maximal inhibition (IC50) is 410 nM.

Still in this assay, the particulars now being: test compound 10 μM; 0.4% DMSO = 0%, non-labeled glucagon 1 μM = 100%; read-out: inhibitory rate (%) at 10 μM.
On to `COCc1c(C(Nc2ccc(C(=O)N(C)CCC(=O)O)cc2)C2CCCCC2)oc2ccc(F)cc12` (single isomer, unassigned) [Example A49, 3-[{[4-({cyclohexyl[5-fluoro-3-(methoxymethyl)-1-benzofuran-2-yl]methyl}amino)phenyl]carbonyl}(methyl)amino]propanoic acid], for which the inhibition at 10 µM amounted to 86%. Still for that read-out and setting: the result for `Cc1nn(-c2ccc(C(F)(F)F)cn2)cc1C(Nc1ccc(C(=O)NCCC(=O)O)cc1)C1CCCCC1` (stereo not drawn) [Example 1, 3-[({4-[(Cyclohexyl{3-methyl-1-[5-(trifluormethyl)pyridin-2-yl]-1H-pyrazol-4-yl}methyl)amino]phenyl}carbonyl)amino]propanoic acid] reads 73%. Same read-out and setting: under `Cc1nn(-c2ccc(C(F)(F)F)cn2)cc1C(Nc1ccc(C(=O)N(C)CCC(=O)O)cc1)C1CCCCC1` (stereo not drawn) [Example 2, 3-[({4-[(cyclohexyl{3-methyl-1-[5-(trifluoromethyl)pyridin-2-yl]-1H-pyrazol-4-yl}methyl)amino]phenyl}carbonyl)(methyl)amino]propanoic acid] stands 72%; under `CCc1nn(-c2ccc(C(F)(F)F)cn2)cc1C(Nc1ccc(C(=O)NCCC(=O)O)cc1)C1CCCCC1` (stereo not drawn) [Example 3, 3-[({4-[(cyclohexyl{3-ethyl-1-[5-(trifluoromethyl)pyridin-2-yl]-1H-pyrazol-4-yl}methyl)amino]phenyl}carbonyl)amino]propanoic acid], 74%; under `CCc1nn(-c2ccc(C(F)(F)F)cn2)cc1C(Nc1ccc(C(=O)N(C)CCC(=O)O)cc1)C1CCCCC1` (stereo not drawn) [Example 4, 3-[({4-[(cyclohexyl{3-ethyl-1-[5-(trifluoromethyl)pyridin-2-yl]-1H-pyrazol-4-yl}methyl)amino]phenyl}carbonyl)(methyl)amino]propanoic acid], 77%. Still for that read-out and setting: under `CCCc1nn(-c2ccc(C(F)(F)F)cn2)cc1C(Nc1ccc(C(=O)NCCC(=O)O)cc1)C1CCCCC1` (stereo not drawn) [Example 5, 3-[({4-[(cyclohexyl{3-propyl-1-[5-(trifluoromethyl)pyridin-2-yl]-1H-pyrazol-4-yl}methyl)amino]phenyl}carbonyl)amino]propanoic acid] stands 73%. With `CCCc1nn(-c2ccc(C(F)(F)F)cn2)cc1C(Nc1ccc(C(=O)N(C)CCC(=O)O)cc1)C1CCCCC1` (stereo not drawn) [Example 6, 3-[({4-[(cyclohexyl{3-propyl-1-[5-(trifluoromethyl)pyridin-2-yl]-1H-pyrazol-4-yl}methyl)amino]phenyl}carbonyl)(methyl)amino]propanoic acid], the inhibition at 10 µM stood at 75%.

As to `CC(C)c1nn(-c2ccc(C(F)(F)F)cn2)cc1C(Nc1ccc(C(=O)NCCC(=O)O)cc1)C1CCCCC1` (stereo not drawn) [Example 7, 3-[({4-[(cyclohexyl{3-(1-methylethyl)-1-[5-(trifluoromethyl)pyridin-2-yl]-1H-pyrazol-4-yl}methyl)amino]phenyl}carbonyl)amino]propanoic acid], the inhibition at 10 µM was determined as 72%.

Consider `CC(C)c1nn(-c2ccc(C(F)(F)F)cn2)cc1C(Nc1ccc(C(=O)N(C)CCC(=O)O)cc1)C1CCCCC1` (stereo not drawn) [Example 8, 3-[({4-[(cyclohexyl{3-(1-methylethyl)-1-[5-(trifluoromethyl)pyridin-2-yl]-1H-pyrazol-4-yl}methyl)amino]phenyl}carbonyl)(methyl)amino]propanoic acid], for which the inhibition at 10 µM stood at 75%. Still for that read-out and setting: the result for `O=C(O)CCNC(=O)c1ccc(NC(c2cn(-c3ccc(C(F)(F)F)cn3)nc2C2CC2)C2CCCCC2)cc1` (stereo not drawn) [Example 9, 3-[({4-[(cyclohexyl{3-cyclopropyl-1-[5-(trifluoromethyl)pyridin-2-yl]-1H-pyrazol-4-yl}methyl)amino]phenyl}carbonyl)amino]propanoic acid] reads 74%. As for `CN(CCC(=O)O)C(=O)c1ccc(NC(c2cn(-c3ccc(C(F)(F)F)cn3)nc2C2CC2)C2CCCCC2)cc1` (stereo not drawn) [Example 10, 3-[({4-[(cyclohexyl{3-cyclopropyl-1-[5-(trifluoromethyl)pyridin-2-yl]-1H-pyrazol-4-yl}methyl)amino]phenyl}carbonyl)(methyl)amino]propanoic acid], the inhibition at 10 µM amounted to 76%. The same measure, in the same setting: under `O=C(O)CCNC(=O)c1ccc(NC(c2cn(-c3ccc(C(F)(F)F)cn3)nc2CCc2ccccc2)C2CCCCC2)cc1` (stereo not drawn) [Example 11, 3-[({4-[(cyclohexyl{3-(2-phenylethyl)-1-[5-(trifluoromethyl)pyridin-2-yl]-1H-pyrazol-4-yl}methyl)amino]phenyl}carbonyl)amino]propanoic acid] stands 73%. Same read-out and setting: the result for `CN(CCC(=O)O)C(=O)c1ccc(NC(c2cn(-c3ccc(C(F)(F)F)cn3)nc2CCc2ccccc2)C2CCCCC2)cc1` (stereo not drawn) [Example 12, 3-[({4-[(cyclohexyl{3-(2-phenylethyl)-1-[5-(trifluoromethyl)pyridin-2-yl]-1H-pyrazol-4-yl}methyl)amino]phenyl}carbonyl)(methyl)amino]propanoic acid] reads 74%. The same measure, in the same setting: under `CC(C)(C)c1nn(-c2ccc(C(F)(F)F)cn2)cc1C(Nc1ccc(C(=O)NCCC(=O)O)cc1)C1CCCCC1` (stereo not drawn) [Example 13, 3-{[(4-{[{3-tert-butyl-1-[5-(trifluoromethyl)pyridin-2-yl]-1H-pyrazol-4-yl}(cyclohexyl)methyl]amino}phenyl)carbonyl]amino}propanoic acid] stands 71%.

Consider `CN(CCC(=O)O)C(=O)c1ccc(NC(c2cn(-c3ccc(C(F)(F)F)cn3)nc2C(C)(C)C)C2CCCCC2)cc1` (stereo not drawn) [Example 14, 3-{[(4-{[{3-tert-butyl-1-[5-(trifluoromethyl)pyridin-2-yl]-1H-pyrazol-4-yl}(cyclohexyl)methyl]amino}phenyl)carbonyl](methyl)amino}-propanoic acid], for which the inhibition at 10 µM was 71%. The same measure, in the same setting: the result for `O=C(O)CCNC(=O)c1ccc(NC(c2cn(-c3ccccc3)nc2CCc2ccccc2)C2CCCCC2)cc1` (stereo not drawn) [Example 15, 3-({[4-({cyclohexyl[1-phenyl-3-(2-phenylethyl)-1H-pyrazol-4-yl]methyl}amino)phenyl]carbonyl}amino)propanoic acid] reads 72%; that for `CN(CCC(=O)O)C(=O)c1ccc(NC(c2cn(-c3ccccc3)nc2CCc2ccccc2)C2CCCCC2)cc1` (stereo not drawn) [Example 16, 3-[{[4-({cyclohexyl[1-phenyl-3-(2-phenylethyl)-1H-pyrazol-4-yl]methyl}amino)phenyl]carbonyl}(methyl)amino]propanoic acid], 63%; that for `Cc1nn(-c2ccccc2)cc1C(Nc1ccc(C(=O)NCCC(=O)O)cc1)C1CCCCC1` (stereo not drawn) [Example 17, 3-{[(4-{[cyclohexyl(3-methyl-1-phenyl-1H-pyrazol-4-yl)methyl]amino}phenyl)carbonyl]amino}propanoic acid], 80%. With `Cc1nn(-c2ccccc2)cc1C(Nc1ccc(C(=O)N(C)CCC(=O)O)cc1)C1CCCCC1` (stereo not drawn) [Example 18, 3-{[(4-{[cyclohexyl(3-methyl-1-phenyl-1H-pyrazol-4-yl)methyl]amino}phenyl)carbonyl](methyl)amino}propanoic acid], the inhibition at 10 µM is 72%.

Consider `Cc1nn(-c2ccc(Cl)cc2)cc1C(Nc1ccc(C(=O)NCCC(=O)O)cc1)C1CCCCC1` (stereo not drawn) [Example 19, 3-({[4-({[1-(4-chlorophenyl)-3-methyl-1H-pyrazol-4-yl](cyclohexyl)methyl}amino)phenyl]carbonyl}amino)propanoic acid], for which the inhibition at 10 µM was 80%. Still for that read-out and setting: the result for `Cc1nn(-c2ccc(Cl)cc2)cc1C(Nc1ccc(C(=O)N(C)CCC(=O)O)cc1)C1CCCCC1` (stereo not drawn) [Example 20, 3-[{[4-({[1-(4-chlorophenyl)-3-methyl-1H-pyrazol-4-yl](cyclohexyl)methyl}amino)phenyl]carbonyl}(methyl)amino]-propanoic acid] reads 79%; that for `Cc1cc(F)ccc1-n1cc(C(Nc2ccc(C(=O)NCCC(=O)O)cc2)C2CCCCC2)c(C)n1` (stereo not drawn) [Example 21, 3-({[4-({[1-(4-fluoro-2-methylphenyl)-3-methyl-1H-pyrazol-4-yl](cyclohexyl)methyl}amino)phenyl]carbonyl}amino)propanoic acid], 77%.

The record behind these values is patent US8436043B2 (Takeda Pharmaceutical Company Limited, priority 2008, dated 2013).
